The source of these data is patent US9012443B2 (Amgen Inc., priority 2011, dated 2015).

What all share (type): cell-based
For series [1], the target named is Nav 1.5 (Homo sapiens (Human), UniProt Q14524). Briefly: Nav 1.5 in vitro PX assay (PatchXpress whole cell voltage clamp). The settings on record: 293 cells stably transfected with Nav 1.5; second part of table; read-out: Nav1.5 PX IC50. The method, boiled down: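 HEK293 cells stably expressing Nav 1.5, whole-cell voltage clamp held at −50 mV; 20 msec test pulses to 0 mV at 0.1 Hz, each preceded by a step to −120 mV.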
Chain of Nav 1.5 (Q14524 whole entry): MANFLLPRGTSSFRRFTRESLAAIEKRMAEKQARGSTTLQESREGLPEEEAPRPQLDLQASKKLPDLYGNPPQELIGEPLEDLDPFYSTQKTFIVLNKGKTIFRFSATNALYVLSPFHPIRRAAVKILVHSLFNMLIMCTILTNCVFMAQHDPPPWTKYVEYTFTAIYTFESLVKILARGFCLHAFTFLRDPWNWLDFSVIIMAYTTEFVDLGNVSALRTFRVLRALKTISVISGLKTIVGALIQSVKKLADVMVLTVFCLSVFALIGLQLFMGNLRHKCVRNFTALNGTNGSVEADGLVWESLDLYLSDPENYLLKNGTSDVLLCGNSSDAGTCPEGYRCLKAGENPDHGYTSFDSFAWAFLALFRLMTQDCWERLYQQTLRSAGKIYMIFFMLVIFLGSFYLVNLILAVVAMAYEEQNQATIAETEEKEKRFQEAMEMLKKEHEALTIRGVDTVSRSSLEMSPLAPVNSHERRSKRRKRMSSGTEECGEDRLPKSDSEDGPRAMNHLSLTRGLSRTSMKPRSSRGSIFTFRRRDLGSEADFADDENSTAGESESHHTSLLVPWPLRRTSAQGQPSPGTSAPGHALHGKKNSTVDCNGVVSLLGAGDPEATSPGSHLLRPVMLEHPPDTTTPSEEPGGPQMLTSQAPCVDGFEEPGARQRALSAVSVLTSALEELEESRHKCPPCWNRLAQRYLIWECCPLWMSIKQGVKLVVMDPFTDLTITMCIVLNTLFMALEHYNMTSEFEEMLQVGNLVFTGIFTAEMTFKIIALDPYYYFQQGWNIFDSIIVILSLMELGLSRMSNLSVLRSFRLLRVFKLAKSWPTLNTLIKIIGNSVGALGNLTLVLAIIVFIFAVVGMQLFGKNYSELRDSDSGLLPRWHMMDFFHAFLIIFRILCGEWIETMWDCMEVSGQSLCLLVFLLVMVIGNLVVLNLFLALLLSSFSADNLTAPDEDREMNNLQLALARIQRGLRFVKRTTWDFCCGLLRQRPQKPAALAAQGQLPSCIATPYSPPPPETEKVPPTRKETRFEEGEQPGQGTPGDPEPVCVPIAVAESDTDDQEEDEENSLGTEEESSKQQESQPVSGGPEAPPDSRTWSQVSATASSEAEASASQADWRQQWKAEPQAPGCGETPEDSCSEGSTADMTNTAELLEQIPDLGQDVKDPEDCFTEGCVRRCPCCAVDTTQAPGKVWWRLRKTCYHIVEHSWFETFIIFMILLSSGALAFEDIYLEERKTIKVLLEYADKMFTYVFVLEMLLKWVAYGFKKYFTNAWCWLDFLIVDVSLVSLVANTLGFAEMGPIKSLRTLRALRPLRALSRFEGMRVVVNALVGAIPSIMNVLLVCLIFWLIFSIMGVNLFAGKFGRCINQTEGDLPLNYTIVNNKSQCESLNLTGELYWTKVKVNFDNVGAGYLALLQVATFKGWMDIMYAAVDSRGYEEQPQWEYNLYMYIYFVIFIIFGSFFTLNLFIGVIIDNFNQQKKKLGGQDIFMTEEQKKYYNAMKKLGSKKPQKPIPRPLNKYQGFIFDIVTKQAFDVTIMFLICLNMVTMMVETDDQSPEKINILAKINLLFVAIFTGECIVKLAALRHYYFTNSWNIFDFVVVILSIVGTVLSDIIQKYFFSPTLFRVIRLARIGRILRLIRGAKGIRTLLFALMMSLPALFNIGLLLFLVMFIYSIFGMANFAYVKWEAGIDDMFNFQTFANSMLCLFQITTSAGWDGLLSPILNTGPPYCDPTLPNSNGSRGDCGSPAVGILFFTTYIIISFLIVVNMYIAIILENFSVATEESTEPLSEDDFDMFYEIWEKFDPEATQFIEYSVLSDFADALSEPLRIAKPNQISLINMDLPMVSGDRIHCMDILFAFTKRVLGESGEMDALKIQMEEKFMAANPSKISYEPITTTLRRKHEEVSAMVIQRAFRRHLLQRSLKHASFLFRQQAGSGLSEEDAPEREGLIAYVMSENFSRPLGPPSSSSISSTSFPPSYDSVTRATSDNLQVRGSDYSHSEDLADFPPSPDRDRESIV

In series [2] the target is T1, Nav 1.7 (Homo sapiens (Human), UniProt Q15858). Briefly: Nav 1.7 IWQ in vitro assay (IonWorks Quattro population patch-clamp). The conditions noted are these: 293 cells stably transfected with Nav 1.7; second part of table; read-out: Nav1.7 IWQ IC50 IP. The method, boiled down: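 HEK293 cells stably expressing Nav 1.7, recorded by automated population patch-clamp with a train of depolarizations producing increasing inactivation. Single compound concentration added during 3–8 min unclamped period, then same protocol repeated. Leak-corrected current at 26th pulse to −20 mV gave percent block (duplicate); IC50 fitted from concentration–block curves.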
T1 sequence (Q15858 whole entry): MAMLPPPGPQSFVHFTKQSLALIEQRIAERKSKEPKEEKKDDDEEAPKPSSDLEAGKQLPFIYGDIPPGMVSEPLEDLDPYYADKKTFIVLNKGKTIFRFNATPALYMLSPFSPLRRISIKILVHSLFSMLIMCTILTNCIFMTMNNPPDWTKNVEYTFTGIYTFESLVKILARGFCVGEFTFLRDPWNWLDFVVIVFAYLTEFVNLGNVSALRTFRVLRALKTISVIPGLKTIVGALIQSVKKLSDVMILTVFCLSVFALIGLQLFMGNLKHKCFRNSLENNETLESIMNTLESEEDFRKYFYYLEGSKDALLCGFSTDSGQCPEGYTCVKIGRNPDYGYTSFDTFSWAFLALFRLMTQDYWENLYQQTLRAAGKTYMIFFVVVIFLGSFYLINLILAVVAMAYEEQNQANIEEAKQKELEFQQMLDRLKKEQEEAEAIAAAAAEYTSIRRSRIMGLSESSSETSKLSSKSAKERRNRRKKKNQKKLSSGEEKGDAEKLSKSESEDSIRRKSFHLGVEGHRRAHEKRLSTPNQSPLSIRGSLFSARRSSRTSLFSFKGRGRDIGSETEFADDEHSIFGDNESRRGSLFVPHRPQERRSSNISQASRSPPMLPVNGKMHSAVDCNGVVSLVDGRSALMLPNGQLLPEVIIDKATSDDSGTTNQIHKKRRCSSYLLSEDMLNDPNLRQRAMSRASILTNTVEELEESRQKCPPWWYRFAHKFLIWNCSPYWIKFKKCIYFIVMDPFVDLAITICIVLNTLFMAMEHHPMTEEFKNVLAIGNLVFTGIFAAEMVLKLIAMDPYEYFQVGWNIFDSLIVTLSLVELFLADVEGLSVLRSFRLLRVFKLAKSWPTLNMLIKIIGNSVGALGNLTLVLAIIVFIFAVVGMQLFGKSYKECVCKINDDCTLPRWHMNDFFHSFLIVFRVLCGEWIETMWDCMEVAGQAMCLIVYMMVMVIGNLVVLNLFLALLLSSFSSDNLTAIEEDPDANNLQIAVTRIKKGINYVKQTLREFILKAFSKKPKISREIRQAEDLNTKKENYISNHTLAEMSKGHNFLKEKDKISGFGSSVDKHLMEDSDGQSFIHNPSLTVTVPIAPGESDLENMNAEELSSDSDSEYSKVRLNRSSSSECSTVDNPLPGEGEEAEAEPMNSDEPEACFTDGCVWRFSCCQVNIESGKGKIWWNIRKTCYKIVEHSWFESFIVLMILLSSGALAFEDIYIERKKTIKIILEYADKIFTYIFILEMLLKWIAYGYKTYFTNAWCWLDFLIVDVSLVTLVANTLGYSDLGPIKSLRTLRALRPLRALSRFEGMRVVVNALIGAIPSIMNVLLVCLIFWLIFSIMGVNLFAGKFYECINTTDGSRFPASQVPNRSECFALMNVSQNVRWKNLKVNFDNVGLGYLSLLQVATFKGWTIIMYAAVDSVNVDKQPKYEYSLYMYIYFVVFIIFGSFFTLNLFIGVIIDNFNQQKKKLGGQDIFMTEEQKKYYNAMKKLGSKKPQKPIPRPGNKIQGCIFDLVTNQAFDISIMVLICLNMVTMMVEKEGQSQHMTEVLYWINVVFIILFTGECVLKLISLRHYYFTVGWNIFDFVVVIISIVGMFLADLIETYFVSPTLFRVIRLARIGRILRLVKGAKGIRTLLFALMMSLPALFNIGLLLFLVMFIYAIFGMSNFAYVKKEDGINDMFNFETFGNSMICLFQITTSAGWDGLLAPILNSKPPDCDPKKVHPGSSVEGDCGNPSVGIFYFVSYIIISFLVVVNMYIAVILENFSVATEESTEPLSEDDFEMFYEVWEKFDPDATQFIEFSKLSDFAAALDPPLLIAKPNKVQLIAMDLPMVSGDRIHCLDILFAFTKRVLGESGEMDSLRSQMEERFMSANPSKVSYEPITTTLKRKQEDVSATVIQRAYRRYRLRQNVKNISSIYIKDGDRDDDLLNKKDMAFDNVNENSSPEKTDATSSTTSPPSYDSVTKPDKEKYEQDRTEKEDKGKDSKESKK

Series [3] addresses T1, Nav 1.7. Briefly: Nav 1.7 in vitro PX assay (PatchXpress whole cell voltage clamp). The conditions noted are these: 293 cells, human Nav1.7, partially inactivated state; read-out: Nav1.7 PX IC50 IP. The method, boiled down:
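HEK293 cells stably expressing human Nav1.7, whole-cell voltage clamp on PatchXpress, held at potential giving 20–50% inactivation; current elicited by 20 msec pulse to −10 mV.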

For the compound `COc1cc(C(F)(F)F)ccc1-c1ccnc2cc(S(=O)(=O)Nc3nccs3)ccc12` [Example 276, 4-(2-METHOXY-4-(TRIFLUOROMETHYL)PHENYL)-N-(THIAZOL-2-YL)QUINOLINE-7-SULFONAMIDE], the IC50 in series [1] was 12.3 µM; in series [2], 0.05 µM; in series [3] it was 0.35 µM.
